Results taken from PMC11374673, “Discovery of isoquinoline sulfonamides as allosteric gyrase inhibitors with activity against fluoroquinolone-resistant bacteria” (Nature Chemistry, 2024).
≈ marks a conversion by molar mass, not a printed value. Where “and” joins values, the source holds several entries; their conditions need not be identical. Equal values may be shown once. Read-outs that look alike come from different tables or passages of the source.

How the values were obtained:
[1] = system: clinical isolates of E. coli; test: MIC against clinical isolates and potentiation by 4 µM PMBN; type: cell-based, Escherichia coli; details: for MIC: Escherichia coli
Protocol: (§1) MIC was determined by broth microdilution. Single-colony cultures were grown to exponential phase (OD600 of 0.5) aerobically at 37 °C. In case of strains from the Keio collection, 50 µg ml^−1 kanamycin was supplemented to the media to ascertain a homogeneous population. The bacterial suspensions were diluted 100-fold in CAMHB and 50 µl was added to a twofold serial dilution series of test compounds (50 µl per well) in polypropylene 96-well microtitre plates to reach a volume of 100 µl. The plates were sealed with breathable membranes and incubated overnight at 37 °C with constant shaking (600 r.p.m.).

[2] = system: E. coli BW25113 and single-gene knockouts; test: MIC on E. coli strains of the Keio collection; type: cell-based, Escherichia coli; details: for MIC: Escherichia coli
In short: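 Broth microdilution in CAMHB with twofold compound series; exponential-phase cultures (OD600 0.5) diluted 100-fold as inoculum, Keio strains pre-grown with 50 µg ml^−1 kanamycin. Overnight incubation at 37 °C, shaking 600 r.p.m. MIC is lowest concentration without visible growth, median of at least triplicates.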

[3] = system: E. coli ATCC 25922; test: MIC by broth microdilution; type: cell-based; details: Escherichia coli, ATCC25922, read-out: MIC E. coli ATCC 25922
Protocol: as §1

[4] = system: E. coli W3110; test: MIC by broth microdilution; type: cell-based, Escherichia coli; details: Escherichia coli, W3110, WT, broth microdilution; read-out: MIC E. coli W3110
In short: (§2)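 Exponential-phase cultures (OD600 0.5, 37 °C aerobic), diluted 100-fold in CAMHB, were added to twofold compound dilution series. Keio strains grown with 50 µg ml^−1 kanamycin. Plates incubated overnight at 37 °C, shaking at 600 r.p.m.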

[5] = system: K. pneumoniae ATCC 29665; test: MIC by broth microdilution; type: cell-based, Klebsiella pneumoniae; details: Klebsiella pneumoniae, ATCC29665, read-out: MIC K. pneumoniae ATCC 29665
In short: as §2

[6] = system: E. coli W3110; test: Checkerboard assay with PMBN;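 as to checkerboard plate reading, Average values: OD600 read after 20 h incubation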;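 as to checkerboard plate reading, replicate wells: OD600 read after 20 h incubation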

With `O=S(=O)(NC[C@@H]1CC[C@H](c2ccc(-c3cccnc3)cc2)N1)c1cccc2cnccc12` [LEI-800] the FC ([1]; E. coli 1075, fold change in MIC after 4 µM PMBN) was > 4, the MSC ([1]; E. coli 1075, with 4 µM PMBN) was 12.5 µM and the FC ([1]; E. coli 552059.1, fold change in MIC after 4 µM PMBN) was 32. For the same compound, the MSC ([1]; E. coli 552059.1, with 4 µM PMBN) was 0.78 µM, the FC ([1]; E. coli 552060.1, fold change in MIC after 4 µM PMBN) was 16 and the MSC ([1]; E. coli 552060.1, with 4 µM PMBN) was 1.5 µM. For the same compound, the FC ([1]; E. coli MVAST0072, fold change in MIC after 4 µM PMBN) was 16, the MSC ([1]; E. coli MVAST0072, with 4 µM PMBN) was 1.5 µM and the FC ([1]; E. coli NCTC13463, fold change in MIC after 4 µM PMBN) was 8. The MSC ([1]; E. coli NCTC13463, with 4 µM PMBN) was 0.4 µM, the FC ([1]; E. coli NCTC13846, fold change in MIC after 4 µM PMBN) was 4 and the MSC ([1]; E. coli NCTC13846, with 4 µM PMBN) was 12.5 µM. For the same compound, the FC ([1]; E. coli mcr-1, fold change in MIC after addition of 4 µM PMBN) was 4, the MSC ([1]; E. coli mcr-1, with 4 µM PMBN) was 6.25 µM and the MIC ([1]; CIP-resistant isolate 965 (MDR)) was 12.5 µM. The MIC ([1]; CIP-resistant isolate 991, read-out: MIC) was 25 µM, the MIC ([1]; CIP-resistant isolate 1022 (ESBL), read-out: MIC) was 25 µM and the MIC ([1]; CIP-resistant isolate 1104 (MDR), read-out: MIC) was 25 µM. It also gave an MIC ([1]; CIP-resistant isolate 1146 (MDR)) of 6.25 µM, an MIC ([1]; CIP-resistant isolate 1175 (MDR), read-out: MIC) of 25 µM and an MIC ([1]; CIP-resistant isolate 1192 (MDR), read-out: MIC) of 50 µM. The MIC ([1]; CIP-resistant isolate 1201 (MDR)) was 12.5 µM, the MIC ([1]; CIP-resistant isolate 1233, read-out: MIC) was 12.5 µM and the MIC ([1]; E. coli 1075 (MDR), read-out: MIC) was > 50 µM. It also gave an MIC ([1]; E. coli 552059.1, read-out: MIC) of 25 µM, an MIC ([1]; E. coli 552060.1, read-out: MIC) of 25 µM and an MIC ([1]; E. coli MVAST0072 (MDR), read-out: MIC) of 25 µM. The MIC ([1]; NCTC13463, E. coli NCTC13463 (ESBL), read-out: MIC) was 3.1 µM, the MIC ([1]; NCTC13846, E. coli NCTC13846 (MDR, mcr-1)) was 50 µM and the FC ([1]; isolate 965, fold-change in MIC) was 16. It also gave an MSC ([1]; isolate 965, with 4 μM PMBN) of 0.8 µM, an FC ([1]; isolate 991, fold-change in MIC) of 8 and an MSC ([1]; isolate 991, with 4 μM PMBN) of 3.1 µM. The FC ([1]; isolate 1022, fold-change in MIC) was 16, the MSC ([1]; isolate 1022, with 4 μM PMBN) was 1.6 µM and the FC ([1]; isolate 1104, fold-change in MIC) was 16. The MSC ([1]; isolate 1104, with 4 μM PMBN) was 1.6 µM, the FC ([1]; isolate 1146, fold-change in MIC) was 8 and the MSC ([1]; isolate 1146, with 4 μM PMBN) was 0.8 µM. The FC ([1]; isolate 1175, fold-change in MIC) was 8, the MSC ([1]; isolate 1175, with 4 μM PMBN) was 3.1 µM and the FC ([1]; isolate 1192, fold-change in MIC) was 16. The MSC ([1]; isolate 1192, with 4 μM PMBN) was 3.1 µM, the FC ([1]; isolate 1201, fold-change in MIC) was 8 and the MSC ([1]; isolate 1201, with 4 μM PMBN) was 1.6 µM. For the same compound, the FC ([1]; isolate 1233, fold-change in MIC) was 8, the MSC ([1]; isolate 1233, with 4 μM PMBN) was 1.6 µM and the “potency against ΔtolC efflux pump mutant” value [2] was “No increase in potency”. For the same compound, the MIC ([2]; BW25113, JW3594 ΔrfaD) was 0.4 µM (≈ 0.178 µg/mL), the MIC ([2]; BW25113, JW3596 ΔrfaC, LPS disruption (genetic)) was 0.4 µM (≈ 0.178 µg/mL) and the MIC ([2]; BW25113, JW3600 ΔrfaY) was 1.6 µM (≈ 0.711 µg/mL). For the same compound, the MIC ([2]; BW25113, JW3602 ΔrfaI) was 1.6 µM (≈ 0.711 µg/mL), the MIC ([2]; BW25113, JW3605 ΔrfaP) was 0.4 µM (≈ 0.178 µg/mL) and the MIC ([2]; BW25113, JW5503 ΔTolC) was 3.1 µM (≈ 1.38 µg/mL). For the same compound, the MIC ([2]; BW25113, read-out: MIC E. coli BW25113, parent strain) was 3.1 µM (≈ 1.38 µg/mL), the MIC [3] was 6.25 µM (≈ 2.78 µg/mL) and the MIC [4] was 3.1 µM (≈ 1.38 µg/mL). The MIC [5] was 6.25 µM (≈ 2.78 µg/mL), the MIC ([6]; Escherichia coli, W3110) was 3.13 µM and the “checkerboard plate reading, replicate wells” value ([6]; LEI-800 0.0488281 µM + PMBN 0 µM) was 0.6247 and 0.5887 and 0.5873. The “checkerboard plate reading, Average values” ([6]; LEI-800 0.0488281 µM + PMBN 0 µM (by position)) was 0.6003, the “checkerboard plate reading, replicate wells” value ([6]; LEI-800 0.0488281 µM + PMBN 0.5 µM) was 0.5854 and 0.5839 and 0.7031 and the “checkerboard plate reading, Average values” ([6]; LEI-800 0.0488281 µM + PMBN 0.5 µM (by position)) was 0.5871. For the same compound, the “checkerboard plate reading, replicate wells” value ([6]; LEI-800 0.0488281 µM + PMBN 1 µM) was 0.5898 and 0.5581 and 0.551, the “checkerboard plate reading, Average values” ([6]; LEI-800 0.0488281 µM + PMBN 1 µM (by position)) was 0.5855 and the “checkerboard plate reading, replicate wells” value ([6]; LEI-800 0.0488281 µM + PMBN 2 µM) was 0.674 and 0.6137 and 0.6739. The “checkerboard plate reading, Average values” ([6]; LEI-800 0.0488281 µM + PMBN 2 µM (by position)) was 0.6241, the “checkerboard plate reading, replicate wells” value ([6]; LEI-800 0.0488281 µM + PMBN 4 µM) was 0.5444 and 0.5786 and 0.5784 and the “checkerboard plate reading, Average values” ([6]; LEI-800 0.0488281 µM + PMBN 4 µM (by position)) was 0.615. For the same compound, the “checkerboard plate reading, replicate wells” value ([6]; LEI-800 0.0488281 µM + PMBN 8 µM) was 0.315 and 0.3156 and 0.322, the “checkerboard plate reading, Average values” ([6]; LEI-800 0.0488281 µM + PMBN 8 µM (by position)) was 0.6041 and the “checkerboard plate reading, replicate wells” value ([6]; LEI-800 0.0488281 µM + PMBN 16 µM) was 0.3097 and 0.3235 and 0.4832.
